Data published in US20210380951A1, “RNA-BASED METHODS TO LAUNCH HEPATITIS B VIRUS INFECTION” (priority 2018, published 2021).
Where a name gives a salt, the structure may show the parent alone.

Assays:
WT HBV = test: RNA launch method: inhibition of HBV replication from transfected pgRNA, read out as percent HBsAg (CLIA); assay type: cell-based; settings: HBsAg with vs without inhibitor, FIG. 4
Method: The inhibitory effect of three reverse-transcriptase inhibitors, Entecavir (ETV), Tenofovir Disoproxil Fumarate (TDF), and Lamivudine (LAM) on WT HBV was compared. The inhibitory effect of LAM on the HBV viral variant M204V was also measured. The inhibition by the reverse-transcriptase inhibitors was determined as percent HBsAg by comparing the level of HBsAg in the presence and absence of the inhibitors.
HepG2-NTCP or Huh-7.5-NTCP cells were seeded at 2.5×10^5 cells per well in six-well plates two days before transfection. The media was changed to 2 ml DMEM containing 1.5% FBS and 0.1 mM NEAA just before transfection. […]
HBeAg and HBsAg were quantified using a chemiluminescence immunoassay (CLIA) kit (Autobio Diagnostics Co., Zhengzhou, China) according to the manufacturer's instructions. To quantify HBV DNA, total DNA was extracted from infected or RNA-transfected cells using QIAamp DNA Blood Mini Kit (Qiagen, cat. #51106) and HBV DNA was detected by qPCR as previously described (Michalidis et al., Sci Rep. 2017, November 30:7(1):16616). For each experiment, cells were transfected with T7-RFP as a negative control and DNA quantified from these cells was used to define the background. […]

chronic HBV = settings: chronically infected patients, injectable; cited from earlier work

| Compound | inhibitory effect on WT HBV (HBV replication, percent HBsAg) (WT HBV) | success rate of curing chronic HBV (chronic HBV) [%] |
| --- | --- | --- |
| C=C1[C@H](CO)[C@@H](O)C[C@@H]1n1cnc2c(=O)[nH]c(N)nc21 [Entecavir] | inhibited HBV replication in a dose-dependent manner |  |
| CC(C)OC(=O)OCOP(=O)(CO[C@H](C)Cn1cnc2c(N)ncnc21)OCOC(=O)OC(C)C [Tenofovir Disoproxil Fumarate] | inhibited HBV replication in a dose-dependent manner |  |
| interferon alpha [IFNα] |  | ~10 |
